Earlier results on one molecule are cited in patent publication US20240023554A1, “MICROPARTICLE COMPOSITIONS COMPRISING TRIFLUDIMOXAZIN” (BASF SE, priority 2020, published 2024).

For the series the following is noted: background statement.

As for `C#CCN1C(=O)C(F)(F)Oc2cc(F)c(-n3c(=O)n(C)c(=S)n(C)c3=O)cc21` [Trifludimoxazin, 1,5-dimethyl-6-thioxo-3-[2,2,7-trifluoro-3-oxo-4-(prop-2-yn-1-yl)-3,4-dihydro-2H-1,4-benzoxazin-6-yl]-1,3,5-triazinane-2,4-dione], the solubility in water entry was “only sparingly soluble in water”.
